Tests used:
Type in all cases: cell-based, male wister rats
fat cells [1] = assay: Decomposition by adrenalin of the fat in the fat cells; conditions: adrenalin 1 μg/ml + saponin 20 μg/ml, 37° C., two hours; for inhibition at 20 µg/mL: Rattus norvegicus, 2 h, read-out: Rate of inhibition
Method: A small section was prepared from 4 g of the fat tissue, and placed in 10 ml. of Krebs-Ringer bicarbonate buffer containing 0.4 g of albumin, 10 mg of collagenase and 5 mg of glucose, and having a pH value of 7.4. […] Added into the fat cell were 10 ml. of the aforesaid buffer (pH 7.4), and the solution was carefully stirred to wash the fat cell, followed by centrifugal separation at 300 rpm for 30 seconds. This procedure was repeated twice, whereby the fat cells were washed perfectly, and these fat cells were used for the tests.
The fat cells obtained by treating with collagenase were suspended in Krebs-Ringer phosphate buffer (KRP) having a pH value of 7.4. Placed into a test tube were 0.3 ml. of the solution thus obtained, and containing 100 mg of fat cells, 0.1 ml. of an adrenalin solution containing 1 μg of adrenalin, 0.1 ml. of a saponin solution containing 20 μg of saponin, and 0.5 ml. of a 5% albumin solution in KRP, and having a pH value adjusted to 7.4. […] More specifically, 3 ml. of Dole's extract were placed in the reaction system, and after they were shaked for five minutes, 3 ml. of heptane were dispensed, and 1 ml. of a thymol blue solution was added thereinto. The resulting solution was titrated with a 0.008 N aqueous solution of sodium hydroxide, while it was being stirred with nitrogen, and the amount of the resulting free fatty acid was determined in accordance with a calibration curve.
The rate of inhibition was obtained in accordance with the equation shown at (1) above.

fat cells [2] = assay: Synthesis of fat from glucose in fat cells; conditions: 20 μg/ml; for Power for synthesis of neutral fat from glucose: 37° C., half an hour; for activation at 20 µg/mL: Rattus norvegicus, 0.5 h, none = 100, read-out: Rate of promotion
Method: (§1) Fat tissues were separated from the epididymides of male wister rats weighing 150 to 180 g each, and fat cells were obtained therefrom in accordance with the Rodbell's method [M. Rodbell, J. Biol. Chem., 239, 375 (1964)]. A small section was prepared from 4 g of the fat tissue, and placed in 10 ml. of Krebs-Ringer bicarbonate buffer containing 0.4 g of albumin, 10 mg of collagenase and 5 mg of glucose, and having a pH value of 7.4. It was heated at 37° C. for 50 minutes, and subjected to centrifugal separation at 300 rpm, whereby a floating fat cell layer was separated. Added into the fat cell were 10 ml. of the aforesaid buffer (pH 7.4), and the solution was carefully stirred to wash the fat cell, followed by centrifugal separation at 300 rpm for 30 seconds. This procedure was repeated twice, whereby the fat cells were washed perfectly, and these fat cells were used for the tests.
^14 C-glucose having its carbon atoms marked with radioactivity was reacted upon fat cells, and a Geiger count was read to determine the amount of the glucose participating in the fat synthesis and incorporated into the fat cells as a neutral fat, whereby gynosaponins were tested for their effects on the power of the glucose for fat synthesis.
More specifically, the fat cells obtained by treating with collagenase were suspended in KRB, and 0.35 ml. of the resulting solution containing 100 mg of fat cells was placed into a test tube with 0.1 ml. of each saponin solution containing 20 μg of saponin, 0.5 ml. of a 5% albumin solution in KRB, containing 10 mM glucose and having a pH value of 7.4, and 0.05 ml. of a ^14 C-glucose solution which was a 0.5 μCi KRP solution having a pH value of 7.4 and containing 10 mM glucose. They were heated at 37° C. for half an hour, and after 5 ml. of Dole's extract were added and the whole was shaked for five minutes, 3 ml. of heptane and 2 ml. of water were added, and the whole was shaked for five minutes. 3 ml. of a heptane layer were separated, and after an alkaline ethanol solution (0.5 N sodium hydroxide solution, 50 % ethanol solution) was added in the amount of 3 ml., the whole was shaked for five minutes. Then, 1 ml. of an ethanol layer was separated, and 10 ml. of a toluene scintillation solution were added thereinto, followed by determination according to the method of Skipski et al. [Biochem. Biophys. Acta, 106, 386 (1965)].

fat cells [3] = assay: Decomposition of the fat in the fat cell by ACTH; conditions: ACTH 1 μg/ml + saponin 20 μg/ml, 37° C., two hours; for inhibition at 20 µg/mL: Rattus norvegicus, 2 h, read-out: Rate of inhibition
Method: as §1
The fat cells obtained by treating with collagenase were suspended in Krebs-Ringer bicarbonate buffer (KRB) having a pH value of 7.4. Placed into a test tube were 0.3 ml. of the solution thus obtained (containing 100 mg of fat cells), 0.1 ml. of ACTH solution containing 1 μg of ACTH, 0.1 ml. of each saponin solution containing 500 μg of saponin, and 0.3 ml. of a 5% alubumin solution in KRB, and having a pH value adjusted to 7.4. They were heated at 37° C. for two hours, and the amount of the resulting free fatty acid was determined in accordance with the Dole's method [V. P. Dole, J. Biol. Chem., 35, 150 (1958)].
Namely, 3 ml. of Dole's extract were separated into the reaction system, and 1 ml. of a thymol blue solution was added thereinto. Nitrogen was blown into the resulting solution, and the solution was titrated with a 0.008 N aqueous solution of sodium hydroxide, while it was being stirred. The amount of the resulting free fatty acid was determined in accordance with a calibration curve.
The rate of inhibition against fat decomposition was obtained in accordance with the following equation: [formula] wherein A stands for the amount of the free fatty acid formed by addition of ACTH along in the amount of 1 μg/ml.; and B stands for the amount of the free fatty acid formed by addition of ACTH and saponin in the amount of 1 μg/ml. and 20 μg/ml., respectively.

SMILES	inhibition at 20 µg/mL (fat cells [1]) [%]	Free fatty acid formed by decomposition of fat (fat cells [1]) [μ Eq/g]	Power for synthesis of neutral fat from glucose (fat cells [2])	activation at 20 µg/mL (fat cells [2]) [%]	Free fatty acid formed by decomposition of fat (fat cells [3]) [μ Eq/g]	inhibition at 20 µg/mL (fat cells [3]) [%]
CC(C)=CCC[C@](C)(O[C@@H]1O[C@H](CO[C@@H]2O[C@@H](C)[C@H](O)[C@@H](O)[C@H]2O)[C@@H](O)[C@H](O)[C@H]1O)[C@H]1CC[C@]2(C)[C@@H]1[C@H](O)C[C@@H]1[C@@]3(C)CC[C@H](O[C@@H]4O[C@H](CO)[C@@H](O)[C@H](O)[C@H]4O)C(C)(C)[C@@H]3CC[C@]12C [gynosaponin J, 20S-Protopanaxadiol-3-O-β-D-glucopyranoside-20-O-[α-L-rhamnopyranosyl (1→6)-β-D-glucopyranoside]]	7	13.1	11,650 cpm/g	54	5.3	37
CC(C)=CCC[C@](C)(O[C@@H]1O[C@H](CO)[C@@H](O)[C@H](O)[C@H]1O)[C@H]1CC[C@]2(C)[C@@H]1[C@H](O)C[C@@H]1[C@@]3(C)CC[C@H](O[C@@H]4O[C@H](CO[C@@H]5O[C@@H](C)[C@H](O)[C@@H](O)[C@H]5O)[C@@H](O)[C@H](O)[C@H]4O)C(C)(C)[C@@H]3CC[C@]12C [gynosaponin K, 20S-Protopanaxadiol-3-O-[α-L-rhamnopyranosyl (1→6)-β-D-glucopyranoside]-20-O-β-D-glucopyranoside]	2	13.8	13,600 cpm/g	63	6.1	27
CC(C)=CCC[C@](C)(O[C@@H]1O[C@H](CO[C@@H]2OC[C@@H](O)[C@H](O)[C@H]2O)[C@@H](O)[C@H](O)[C@H]1O)[C@H]1CC[C@]2(C)[C@@H]1[C@H](O)C[C@@H]1[C@@]3(C)CC[C@H](O)C(C)(C)[C@@H]3CC[C@]12C [gynosaponin M, 20S-Protopanaxadiol-20-O-[β-D-xylopyranosyl (1→6)-β-D-glucopyranoside]]	4	13.5	12,650 cpm/g	59	6.4	24
CC(C)=CCC[C@](C)(O[C@@H]1O[C@H](CO[C@@H]2O[C@@H](C)[C@H](O)[C@@H](O)[C@H]2O)[C@@H](O)[C@H](O)[C@H]1O)[C@H]1CC[C@]2(C)[C@@H]1[C@H](O)C[C@@H]1[C@@]3(C)CC[C@H](O)C(C)(C)[C@@H]3CC[C@]12C [gynosaponin N, 20S-Protopanaxadiol-20-O-[α-L-rhamnopyranosyl (1→6)-β-D-glucopyranoside]]	6	13.3	9,870 cpm/g	46	5.2	38
CC(=CCCC(C)(OC1OC(COC2OC(C)C(O)C(O)C2O)C(O)C(O)C1O)C1CCC2(C)C1C(O)CC1C3(C)CCC(OC4OC(CO)C(O)C(O)C4OC4OC(CO)C(O)C(O)C4O)C(C)(C)C3CCC12C)CO [gynosaponin P, 20S,26-Hydroxyprotopanaxadiol-3-O-[β-D-glucopyranosyl (1→2)-β-D-glucopyranoside]-20-O-[α-L-rhamnopyranosyl (1→6)-β-D-glucopyranoside]]	10	12.7	8,165 cpm/g	38	6.6	21
